pIC50: −log10 of the molar value.
Biological target: T1, VEGFR-2 (Homo sapiens, UniProt P35968)
T1 construct: gene KDR
Test: cell-free enzymatic kinase assay (Eurofins KinaseProfiler), dose-response […]
Type: biochemical

T1 sequence (P35968 20-1356): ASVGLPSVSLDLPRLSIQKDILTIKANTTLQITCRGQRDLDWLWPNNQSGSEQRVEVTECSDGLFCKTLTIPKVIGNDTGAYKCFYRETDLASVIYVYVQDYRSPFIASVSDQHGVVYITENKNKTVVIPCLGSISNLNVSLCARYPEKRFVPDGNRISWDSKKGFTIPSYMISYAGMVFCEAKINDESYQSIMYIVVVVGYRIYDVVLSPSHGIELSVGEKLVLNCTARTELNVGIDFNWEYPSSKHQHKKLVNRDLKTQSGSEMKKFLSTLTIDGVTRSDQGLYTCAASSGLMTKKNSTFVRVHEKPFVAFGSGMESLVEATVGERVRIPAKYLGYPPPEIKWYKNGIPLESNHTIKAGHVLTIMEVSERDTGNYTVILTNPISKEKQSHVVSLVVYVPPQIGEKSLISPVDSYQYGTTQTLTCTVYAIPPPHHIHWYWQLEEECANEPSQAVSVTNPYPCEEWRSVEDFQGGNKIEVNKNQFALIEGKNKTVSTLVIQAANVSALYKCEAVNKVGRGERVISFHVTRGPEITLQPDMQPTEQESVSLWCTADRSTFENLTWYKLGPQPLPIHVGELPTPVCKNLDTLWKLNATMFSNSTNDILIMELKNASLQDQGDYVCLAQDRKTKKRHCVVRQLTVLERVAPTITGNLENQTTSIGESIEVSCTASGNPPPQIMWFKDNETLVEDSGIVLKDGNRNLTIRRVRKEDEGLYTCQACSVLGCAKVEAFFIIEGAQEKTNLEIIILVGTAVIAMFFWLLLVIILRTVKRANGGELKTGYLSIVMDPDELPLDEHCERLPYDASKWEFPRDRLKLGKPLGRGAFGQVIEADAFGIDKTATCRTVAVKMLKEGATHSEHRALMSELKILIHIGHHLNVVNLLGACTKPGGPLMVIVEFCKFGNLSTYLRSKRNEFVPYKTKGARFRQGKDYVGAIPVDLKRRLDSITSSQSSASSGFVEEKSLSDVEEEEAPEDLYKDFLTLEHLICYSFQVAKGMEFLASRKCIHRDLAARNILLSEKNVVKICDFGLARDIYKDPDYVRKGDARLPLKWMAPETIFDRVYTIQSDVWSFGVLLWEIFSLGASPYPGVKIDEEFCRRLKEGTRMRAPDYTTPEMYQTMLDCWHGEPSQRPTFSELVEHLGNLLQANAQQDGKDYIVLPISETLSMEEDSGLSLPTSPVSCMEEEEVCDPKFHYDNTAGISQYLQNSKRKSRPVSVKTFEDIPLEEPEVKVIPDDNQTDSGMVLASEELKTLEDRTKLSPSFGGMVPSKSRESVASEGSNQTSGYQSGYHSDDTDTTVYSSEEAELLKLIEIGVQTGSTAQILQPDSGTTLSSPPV

pIC50: 5.48
Structure (SMILES): COc1ccc(/C=C(\C#N)c2cccs2)cc1O [Thio-Iva]

Source: publication PMC9146161, “Novel Thienyl-Based Tyrosine Kinase Inhibitors for the Treatment of Hepatocellular Carcinoma” (Journal of Personalized Medicine, 2022)
